EC50 data for 24 compounds are collected here from patent publication US9067943B2, “[1,2,3]triazolo[4,5-D]pyrimidine derivatives” (priority 2011, dated 2015).

One assay addresses T1, human CB2 receptors (Homo sapiens, UniProt P34972).
T1 construct: expressed in transfected cells; host or cells: CHO cells
Kind of assay: cAMP assay. It is filed as cell-based. The protocol: (§1) CHO cells expressing human CB1 or CB2 receptors are seeded 17-24 hours prior to the experiment 50.000 cells per well in a black 96 well plate with flat clear bottom (Corning Costar #3904) in DMEM (Invitrogen No. 31331), 1×HT supplement, with 10% fetal calf serum and incubated at 5% CO2 and 37° C. in a humidified incubator. The growth medium was exchanged with Krebs Ringer Bicarbonate buffer with 1 mM IBMX and incubated at 30° C. for 30 min. Compounds were added to a final assay volume of 100 μl and incubated for 30 min at 30° C. Using the cAMP-Nano-TRF detection kit the assay (Roche Diagnostics) was stopped by the addition of 50 μl lysis reagent (Tris, NaCl, 1.5% Triton X100, 2.5% NP40, 10% NaN3) and 50 μl detection solutions (20 μM mAb Alexa700-cAMP 1:1, and 48 μM Ruthenium-2-AHA-cAMP) and shaken for 2 h at room temperature. The time-resolved energy transfer is measured by a TRF reader (Evotec Technologies GmbH), equipped with a ND:YAG laser as excitation source. The plate is measured twice with the excitation at 355 nm and at the emission with a delay of 100 ns and a gate of 100 ns, total exposure time 10 s at 730 (bandwidth 30 nm) or 645 nm (bandwidth 75 nm), respectively. The FRET signal is calculated as follows: FRET=T730-Alexa730-P(T645-B645) with P=Ru730-B730/Ru645-B645, where T730 is the test well measured at 730 nM, T645 is the test well measured at 645 nm, B730 and B645 are the buffer controls at 730 nm and 645 nm, respectively. cAMP content is determined from the function of a standard curve spanning from 10 μM to 0.1 nM cAMP.
(§2) EC50 values were determined using Activity Base analysis (ID Business Solution, Limited). The EC50 values for a wide range of cannabinoid agonists generated from this assay were in agreement with the values published in the scientific literature.

Another assay has as its target T2, human CB1 receptors (Homo sapiens, UniProt P21554).
T2 construct: expressed in transfected cells; host or cells: CHO cells
Kind of assay: cAMP assay. It counts as cell-based. On the procedure:
as §1, §2

Where [1] appears, read: functional cAMP assay, CHO cells expressing human CB2, read-out: human CB2 EC50.

Like-named read-outs stand apart in the source and are kept apart here. Some results are limits rather than exact numbers.

T1 sequence (P34972 whole entry): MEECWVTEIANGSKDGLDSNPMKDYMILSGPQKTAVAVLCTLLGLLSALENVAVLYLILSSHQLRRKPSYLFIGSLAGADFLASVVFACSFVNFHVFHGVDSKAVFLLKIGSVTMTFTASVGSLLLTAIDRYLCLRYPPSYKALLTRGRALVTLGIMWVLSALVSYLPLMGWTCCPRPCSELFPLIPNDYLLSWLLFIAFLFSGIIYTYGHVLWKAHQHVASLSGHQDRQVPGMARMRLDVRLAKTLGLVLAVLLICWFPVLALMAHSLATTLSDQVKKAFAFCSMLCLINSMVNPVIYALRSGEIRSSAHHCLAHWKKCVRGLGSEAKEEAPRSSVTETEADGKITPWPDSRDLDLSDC
T2 sequence (P21554 whole entry): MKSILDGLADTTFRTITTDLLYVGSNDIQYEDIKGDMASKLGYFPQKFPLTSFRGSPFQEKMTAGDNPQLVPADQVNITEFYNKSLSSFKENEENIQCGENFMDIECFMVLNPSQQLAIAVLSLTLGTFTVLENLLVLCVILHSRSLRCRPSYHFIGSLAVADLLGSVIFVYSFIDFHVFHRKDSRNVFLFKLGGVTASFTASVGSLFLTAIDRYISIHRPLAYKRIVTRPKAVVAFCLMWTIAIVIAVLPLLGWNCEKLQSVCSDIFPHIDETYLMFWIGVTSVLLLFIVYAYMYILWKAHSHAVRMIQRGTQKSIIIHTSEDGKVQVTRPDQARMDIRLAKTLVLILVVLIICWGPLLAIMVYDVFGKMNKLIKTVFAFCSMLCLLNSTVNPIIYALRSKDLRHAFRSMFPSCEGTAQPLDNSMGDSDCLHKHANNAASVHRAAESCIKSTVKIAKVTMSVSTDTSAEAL

Turning to `CC(C)(C)c1nc(N2CC[C@](C)(O)C2)c2nn(Cc3nnnn3C3CC3)nc2n1` [Example 133-a, (S)-1-[5-tert-Butyl-2-(1-cyclopropyl-1H-tetrazol-5-ylmethyl)-2H-[1,2,3]triazolo[4,5-d]pyrimidin-7-yl]-3-methyl-pyrrolidin-3-ol], the EC50 on human CB2 receptors (setting [1]) is 126 nM; at human CB1 receptors it was above 10000 nM.
As for `Cc1noc(Cn2nc3nc(O[C@@H](C)C(F)(F)F)nc(N4CCC(F)(F)C4)c3n2)n1` [Example 119, 7-(3,3-Difluoro-pyrrolidin-1-yl)-2-(3-methyl-[1,2,4]oxadiazol-5-ylmethyl)-5-((S)-2,2,2-trifluoro-1-methyl-ethoxy)-2H-[1,2,3]triazolo[4,5-d]pyrimidine], the EC50 at human CB2 receptors (setting [1]) is 439 nM; on human CB1 receptors it was above 10000 nM.
For `CC(C)(C)c1nc(N2CC[C@@](C)(O)C2)c2nn(Cc3ccccc3S(C)(=O)=O)nc2n1` [Example 126-b, (R)-1-[5-tert-Butyl-2-(2-methanesulfonyl-benzyl)-2H-[1,2,3]triazolo[4,5-d]pyrimidin-7-yl]-3-methyl-pyrrolidin-3-ol], the 50% effective concentration (EC50) is 24 nM at human CB2 receptors and above 10000 nM at human CB1 receptors.
The like results for `Cc1nc(Cn2nc3nc(C(C)(C)C)nc(N4CCC(F)(F)C4)c3n2)no1` [Example 67, 5-tert-Butyl-7-(3,3-difluoro-pyrrolidin-1-yl)-2-(5-methyl-[1,2,4]oxadiazol-3-ylmethyl)-2H-[1,2,3]triazolo[4,5-d]pyrimidine] were, in that order, 1.3 nM and 1630 nM.
For `Cc1noc(Cn2nc3nc(C(C)(C)C)nc(N4CCC(F)(F)C4)c3n2)n1` [Example 40, 5-tert-Butyl-7-(3,3-difluoro-pyrrolidin-1-yl)-2-(3-methyl-[1,2,4]oxadiazol-5-ylmethyl)-2H-[1,2,3]triazolo[4,5-d]pyrimidine] the same measures were 4.3 nM and above 10000 nM.
`Cc1nc(Cn2nc3nc(C(C)(C)C)nc(N4CC[C@H](O)C4)c3n2)n(C)n1` [Example 95, (S)-1-[5-tert-Butyl-2-(2,5-dimethyl-2H-[1,2,4]triazol-3-ylmethyl)-2H-[1,2,3]triazolo[4,5-d]pyrimidin-7-yl]-pyrrolidin-3-ol]: the EC50 on human CB2 receptors (setting [1]) is 257 nM; at human CB1 receptors it was above 10000 nM.
As to `CC(C)(C)c1nc(N2CC[C@H](O)C2)c2nn(Cc3cccnc3Cl)nc2n1` [Example 77, (S)-1-[5-tert-Butyl-2-(2-chloro-pyridin-3-ylmethyl)-2H-[1,2,3]triazolo[4,5-d]pyrimidin-7-yl]-pyrrolidin-3-ol], the figures for the EC50 on human CB2 receptors and at human CB1 receptors were 15.5 nM and above 10000 nM, respectively.
With `CC(C)(C)c1nc(N2CC[C@H](O)C2)c2nn(Cc3nccc(Cl)c3Cl)nc2n1` [Example 85, (S)-1-[5-tert-Butyl-2-(3,4-dichloro-pyridin-2-ylmethyl)-2H-[1,2,3]triazolo[4,5-d]pyrimidin-7-yl]-pyrrolidin-3-ol], the EC50 on human CB2 receptors is 10.2 nM; at human CB1 receptors, above 10000 nM.
For `CC(C)(C)c1nc(N2CCC(F)(F)C2)c2nn(CC(=O)c3ccccc3)nc2n1` [Example 27, 2-[5-tert-Butyl-7-(3,3-difluoro-pyrrolidin-1-yl)-[1,2,3]triazolo[4,5-d]pyrimidin-2-yl]-1-phenyl-ethanone] the same measures were 0.9 nM and above 10000 nM.
With `CC(C)(C)c1nc(N2CCOCC2)c2nn(Cc3ccccc3Cl)nc2n1` [Example 1, 5-tert-Butyl-2-(2-chloro-benzyl)-7-morpholin-4-yl-2H-[1,2,3]triazolo[4,5d]pyrimidine], the EC50 was 3.3 nM at human CB2 receptors and above 10000 nM at human CB1 receptors.
The like results for `COCCn1nc2nc(C(C)(C)C)nc(N3CCC(F)(F)C3)c2n1` [Example 4, 5-tert-Butyl-7-(3,3-difluoro-pyrrolidin-1-yl)-2-(2-methoxy-ethyl)-2H-[1,2,3]triazolo[4,5-d]pyrimidine] were, in that order, 8 nM and above 10000 nM.
Take `CC(C)(C)c1nc(N2CCC(F)(F)C2)c2nn(CCc3cccc(Cl)c3)nc2n1` [Example 42, 5-tert-Butyl-2-[2-(3-chloro-phenyl)-ethyl]-7-(3,3-difluoro-pyrrolidin-1-yl)-2H-[1,2,3]triazolo[4,5-d]pyrimidine]: the EC50 is 10.6 nM on human CB2 receptors and above 10000 nM on human CB1 receptors.
For `Cc1noc(Cn2nc3nc(C(C)(C)C)nc(N4CC(F)(F)C(F)(F)C4)c3n2)n1` [Example 100, 5-tert-Butyl-2-(3-methyl-[1,2,4]oxadiazol-5-ylmethyl)-7-(3,3,4,4-tetrafluoro-pyrrolidin-1-yl)-2H-[1,2,3]triazolo[4,5-d]pyrimidine] the same measures were 4.6 nM and above 10000 nM.
Take `Cn1nnnc1Cn1nc2nc(NC(C)(C)C)nc(N3CC[C@H](O)C3)c2n1` [Example 145, (S)-1-[5-tert-Butylamino-2-(1-methyl-1H-tetrazol-5-ylmethyl)-2H-[1,2,3]triazolo[4,5-d]pyrimidin-7-yl]-pyrrolidin-3-ol]: the EC50 at human CB2 receptors (setting [1]) was 1090 nM; at human CB1 receptors, above 10000 nM.
As to `CC(C)(C)c1nc(N2CCC(F)(F)C2)c2nn(Cc3c(F)cccc3Cl)nc2n1` [Example 14, 5-tert-Butyl-2-(2-chloro-6-fluoro-benzyl)-7-(3,3-difluoro-pyrrolidin-1-yl)-2H-[1,2,3]triazolo[4,5-d]pyrimidine], the figures for the EC50 at human CB2 receptors and at human CB1 receptors were 0.5 nM and 65 nM, respectively.
For `CC(C)(C)c1nc(N2CC[C@H](O)C2)c2nn(Cc3ncccc3Cl)nc2n1` [Example 75, (S)-1-[5-tert-Butyl-2-(3-chloro-pyridin-2-ylmethyl)-2H-[1,2,3]triazolo[4,5-d]pyrimidin-7-yl]-pyrrolidin-3-ol] the same measures were 4.6 nM and above 10000 nM.
The like results for `Cc1nc(Cn2nc3nc(C(C)(C)C)nc(N4CCC(F)(F)C4)c3n2)n(C)n1` [Example 96, 5-tert-Butyl-7-(3,3-difluoro-pyrrolidin-1-yl)-2-(2,5-dimethyl-2H-[1,2,4]triazol-3-ylmethyl)-2H-[1,2,3]triazolo[4,5-d]pyrimidine] were, in that order, 22.6 nM and above 10000 nM.
For `Cc1nonc1Cn1nc2nc(C(C)(C)C)nc(N3CC[C@](C)(O)C3)c2n1` [Example 131-a, (S)-1-[5-tert-Butyl-2-(4-methyl-furazan-3-ylmethyl)-2H-[1,2,3]triazolo[4,5-d]pyrimidin-7-yl]-3-methyl-pyrrolidin-3-ol] the same measures were 10.2 nM and above 10000 nM.
Take `CCn1nc2nc(C(C)(C)C)nc(N3CCC(F)(F)C3)c2n1` [Example 3, 5-tert-Butyl-7-(3,3-difluoro-pyrrolidin-1-yl)-2-ethyl-2H-[1,2,3]triazolo[4,5-d]pyrimidine]: the EC50 is 18.5 nM on human CB2 receptors and above 10000 nM on human CB1 receptors.
As to `CC(=O)N[C@H]1CCN(c2nc(OCC(C)(C)C)nc3nn(Cc4ncccc4Cl)nc23)C1` [Example 135, N—{(S)-1-[2-(3-Chloro-pyridin-2-ylmethyl)-5-(2,2-dimethyl-propoxy)-2H-[1,2,3]triazolo[4,5-d]pyrimidin-7-yl]-pyrrolidin-3-yl}-acetamide], the EC50 was 606 nM at human CB2 receptors (setting [1]) and above 10000 nM on human CB1 receptors.
As for `Cc1noc(Cn2nc3nc(C(C)(C)C)nc(N4CC[C@H](O)C4)c3n2)n1` [Example 74, (S)-1-[5-tert-Butyl-2-(3-methyl-[1,2,4]oxadiazol-5-ylmethyl)-2H-[1,2,3]triazolo[4,5-d]pyrimidin-7-yl]-pyrrolidin-3-ol], the values for the EC50 at human CB2 receptors and on human CB1 receptors were 61.3 nM and above 10000 nM, respectively.
In the case of `Cn1nnnc1Cn1nc2nc(C(C)(C)C)nc(N3CC[C@@](C)(O)C3)c2n1` [Example 130-b, (R)-1-[5-tert-Butyl-2-(1-methyl-1H-tetrazol-5-ylmethyl)-2H-[1,2,3]triazolo[4,5-d]pyrimidin-7-yl]-3-methyl-pyrrolidin-3-ol], the EC50 on human CB2 receptors (setting [1]) is 798 nM; on human CB1 receptors it was above 10000 nM.
For the compound `Cc1cc(Cn2nc3nc(C(C)(C)C)nc(N4CCC(F)(F)C4)c3n2)n(C)n1` [Example 81, 5-tert-Butyl-7-(3,3-difluoro-pyrrolidin-1-yl)-2-(2,5-dimethyl-2H-pyrazol-3-ylmethyl)-2H-[1,2,3]triazolo[4,5-d]pyrimidine], the EC50 on human CB2 receptors was 9.4 nM; on human CB1 receptors, above 10000 nM.
With `Cc1nonc1Cn1nc2nc(C(C)(C)C)nc(N3CC(F)(F)C(F)(F)C3)c2n1` [Example 99, 5-tert-Butyl-2-(4-methyl-furazan-3-ylmethyl)-7-(3,3,4,4-tetrafluoro-pyrrolidin-1-yl)-2H-[1,2,3]triazolo[4,5-d]pyrimidine], the values for the EC50 on human CB2 receptors and at human CB1 receptors were 0.9 nM and above 10000 nM, respectively.
